“Also recorded” adds a separate entry of the source. Bounds are passed on as bounds.

The test system of assay [1] is IFNγ-induced NO production in RAW cells. The experiment in a line: iNOS assay: inhibition of NO production in RAW cells stimulated by interferon-γ. The assay is classed as cell-based. Particulars: for IC50: Suppression of IFNγ-induced NO production, 24 h, Griess reaction, average of two experiments, read-out: RAW (10 ng/ml IFNγ) IC50. The method, then:
(§1) Compounds of the present disclosure have been tested for inhibition of nitric oxide (NO) production in RAW cells stimulated by interferon-γ (iNOS assay) and induction of NAD(P)H-quinone oxidoreductase in Hepa1c1c7 cells (NQO1 assay), both assay systems we have previously employed. At the same time, CDDO and TBE-31 were tested as a positive controls in the same assays. […] The potency in the iNOS assay is more than CDDO (pentacycle), whose methyl ester is currently evaluated in Phase II clinical trials as an anti-inflammatory drug. Also the potency correlates to their reactivity as Michael acceptors based on the above-summarized UV studies.
For the iNOS assay, RAW cells were treated with various concentrations of compounds and interferon-γ (10 ng/mL) for 24 h. Supernatants were analyzed for nitric oxide (NO) by the Griess reaction. IC50 values are an average of two separate experiments.

For assay [2], the system named is NAD(P)H-quinone oxidoreductase in Hepa1c1c7 cells. The experiment in a line: NQO1 assay: induction of NAD(P)H-quinone oxidoreductase in Hepa1c1c7 cells. The assay is classed as cell-based. As for the experimental part: Novel monocyclic cyano enones (MCEs) were synthesized and their Michael reactivity and biological activity were tested in order to identify useful fragments for drug discovery. […] MCE-1 gives reversible and selective Michael adducts with thiol nucleophiles.
as §1

A further assay has as its target Keap1 (Mus musculus, UniProt Q9Z2X8). The experiment in a line: UV studies with Keap1. Particulars: thiol-rich protein. The source says:
Keap1 is an electrophile sensor in the cellular Keap1-Nrf2-antioxidant response elements (ARE) phase II response pathway that regulates the transcription of genes for cytoprotective enzymes such as HO-1 and NQO1.

For assay [3], the system named is aflatoxin-induced liver cancer. Particulars: rats, orally active; cited from earlier work.
The subject of assay [4] is IFNγ-induced NO production in RAW cells. Particulars: RAW cells stimulated by interferon-γ; cited from earlier work.

Chain of Keap1 (Q9Z2X8 whole entry): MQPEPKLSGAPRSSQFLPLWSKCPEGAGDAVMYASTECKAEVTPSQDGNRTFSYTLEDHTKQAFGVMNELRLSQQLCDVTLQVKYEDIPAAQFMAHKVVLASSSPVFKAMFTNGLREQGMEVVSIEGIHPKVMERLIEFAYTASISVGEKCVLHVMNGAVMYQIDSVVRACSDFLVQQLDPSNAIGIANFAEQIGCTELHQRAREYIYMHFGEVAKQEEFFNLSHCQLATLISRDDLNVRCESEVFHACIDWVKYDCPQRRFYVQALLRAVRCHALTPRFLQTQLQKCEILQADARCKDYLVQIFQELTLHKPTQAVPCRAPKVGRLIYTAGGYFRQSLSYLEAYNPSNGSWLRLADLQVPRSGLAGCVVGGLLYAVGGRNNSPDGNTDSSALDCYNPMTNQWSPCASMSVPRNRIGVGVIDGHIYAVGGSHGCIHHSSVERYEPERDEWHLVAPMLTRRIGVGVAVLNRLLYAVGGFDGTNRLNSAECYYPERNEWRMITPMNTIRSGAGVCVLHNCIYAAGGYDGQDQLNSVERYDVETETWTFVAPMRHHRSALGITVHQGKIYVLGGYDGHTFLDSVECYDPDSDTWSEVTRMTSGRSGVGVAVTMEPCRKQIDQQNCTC

Turning to `CC1(C)CC[C@]2(C(=O)O)CC[C@]3(C)[C@H](C(=O)C=C4[C@@]5(C)C=C(C#N)C(=O)C(C)(C)[C@@H]5CC[C@]43C)[C@@H]2C1` [CDDO, 2-cyano-3,12-diooxooleana-1,9(11)-dien-28-oic acid, reference compound], the IC50 in assay [1] came to 20 nM.

For `C#CC1(C)C=CC(=O)C(C#N)=C1` (stereo not shown) [MCE-1, 3-Ethynyl-3-methyl-6-oxocyclohexa-1,4-dienecarbonitrile], in assay [1] (RAW cells stimulated by interferon-γ), the “potency in the iNOS assay (in words)” value is listed as “highly potent; also recorded: higher than CDDO; also recorded: highest potency amongst MCEs”. Moreover, the IC50 in assay [1] was 8 nM. Further, the “potency in the NQO1 assay (in words)” value in assay [2] was “highly potent; also recorded: highest potency amongst MCEs”. Besides, the “reactivity with Keap1 (UV)” value on Keap1 is listed as “highest reactivity”.

Regarding `CC1(C)C=CC(=O)C(C#N)=C1` [MCE-2, reference compound], the IC50 in assay [1] came out at 380 nM.

`C#C[C@]12C=C(C#N)C(=O)C=C1[C@@]1(C)CCC(=O)C(C)(C)[C@@H]1CC2` [MCE-7]: the IC50 in assay [1] is greater than 300 nM. Besides, the “activity in the iNOS assay” value in assay [1] (at a concentration of 300 nM) was “inactive”. Further, the “potency in the NQO1 assay (in words)” value in assay [2] is “less potent than MCE-1”.

As for `C=CC1(C)C=CC(=O)C(C#N)=C1` (stereo not shown) [MCE-15, 3-methyl-6-oxo-3-vinyl-cyclohexa-1,4-dienecarbonitrile], in assay [1], the IC50 was found to be 300 nM.

In the case of `C#CC12C=C(C#N)C(=O)C=C1[C@@]1(C)C=C(C#N)C(=O)C(C)(C)[C@@H]1CC2` (stereo partly shown) [TBE-31], the IC50 in assay [1] stood at 1 nM. In assay [3], the “potency against aflatoxin-induced liver cancer” value is “exceptionally potent”. In addition, the “inhibition of NO production (iNOS assay), literature” value in assay [4] is “low nanomolecular concentrations”.

The values above are taken from patent US9000188B2, “Monocyclic cyanoenones and methods of use thereof” (Trustees of Dartmouth College, priority 2008, dated 2015).
